Results as given in article doi:10.1101/679977v1 (bioRxiv, 2019).
Square brackets hold non-standard residues; d marks the D form. Peptide text beside a SMILES is read from it.

Legend:
Assay type in all cases: cell-based
E. coli = test: Geometric mean of MICs, selectivity and targeting indices; conditions: for TI Beneficial strains (targeting index): GM(E. coli)/GM(beneficial strains); for TI Beneficial strains (targeting index) / TI Pathogenic strains (targeting index): smaller = greater specificity; for TI Pathogenic strains (targeting index): GM(E. coli)/GM(other pathogenic strains); for SI E. coli (selectivity index): MHC/GM (E. coli), MHC >128 counted as 256 μM, larger = greater cell selectivity; for TI All (TIall, targeting index): all strains, smaller = greater specificity for E. coli; for GM E. coli: geometric mean of MICs against the 6 E. coli strains, >128 counted as 256 μM
Beneficial strains = test: Geometric mean of MICs; conditions: geometric mean of MICs against beneficial strains; >128 counted as 256 μM
E. coli ATCC25922 = test: Salt, serum, acid and alkaline sensitivity; conditions: for MIC, Control: absence of physiological salts, serum, acid and alkaline; for MIC, FeCl3: in presence of 4μM FeCl3 (final); for MIC, MgCl2: in presence of 1 mM MgCl2; for MIC, KCl: in presence of 4.5 mM KCl (final); for MIC, NaCl: in presence of 150 mM NaCl (final); for MIC, PH=2: peptide incubated at pH=2 for 4 h prior to MIC determination; for MIC, PH=4: peptide incubated at pH=4 for 4 h prior to MIC determination; for MIC, PH=10: peptide incubated at pH=10 for 4 h prior to MIC determination; for MIC, PH=12: peptide incubated at pH=12 for 4 h prior to MIC determination

Structure (SMILES)	TI Beneficial strains (targeting index) (E. coli)	TI Pathogenic strains (targeting index) (E. coli)	SI E. coli (selectivity index) (E. coli)	TI All (TIall, targeting index) (E. coli)	GM E. coli (E. coli)	GM Beneficial strains (Beneficial strains)	MIC, Control (E. coli ATCC25922)	MIC, FeCl3 (E. coli ATCC25922)	MIC, MgCl2 (E. coli ATCC25922)	MIC, KCl (E. coli ATCC25922)	MIC, NaCl (E. coli ATCC25922)	MIC, PH=2 (E. coli ATCC25922)	MIC, PH=4 (E. coli ATCC25922)	MIC, PH=10 (E. coli ATCC25922)	MIC, PH=12 (E. coli ATCC25922)
CC[C@H](C)[C@H](NC(=O)CN)C(=O)NCC(=O)N[C@@H](C)C(=O)N[C@H](C(=O)N[C@@H](CC(C)C)C(=O)N[C@@H](CCCCN)C(=O)N[C@H](C(=O)N[C@@H](CC(C)C)C(=O)N[C@H](C(=O)N[C@H](C(=O)NCC(=O)N[C@@H](CC(C)C)C(=O)N1CCC[C@H]1C(=O)N[C@@H](C)C(=O)N[C@@H](CC(C)C)C(=O)N[C@H](C(=O)N[C@@H](CO)C(=O)N[C@@H](Cc1c[nH]c2ccccc12)C(=O)N[C@H](C(=O)N[C@@H](CCCCN)C(=O)N[C@@H](CCCNC(=N)N)C(=O)N[C@@H](CCCCN)C(=O)N[C@@H](CCCNC(=N)N)C(=O)N[C@@H](CCC(N)=O)C(=O)N[C@@H](CCC(N)=O)C(N)=O)[C@@H](C)CC)[C@@H](C)CC)[C@@H](C)O)[C@@H](C)O)C(C)C)C(C)C [MLT, Melittin, reference compound]	1.122	0.630	0.794	0.876	2.520 µM	2.245 µM	–	–	–	–	–	–	–	–	–
CC[C@H](C)[C@H](NC(=O)CNC(=O)[C@H]1CCCN1C(=O)[C@H](CCCCN)NC(=O)[C@H](Cc1c[nH]c2ccccc12)NC(=O)[C@@H](NC(=O)[C@@H](N)CCCCN)[C@@H](C)CC)C(=O)N[C@@H](CCCCN)C(=O)N[C@@H](CCCCN)C(=O)N[C@@H](Cc1c[nH]c2ccccc12)C(=O)O [Peptide 1] (H-KIWK[dP]GIKKW-OH; N-terminus and C-terminus assumed)	1.000	1.000	1.000	1.000	256.000 µM	256.000 µM	>64 µM	>64 µM	>64 µM	>64 µM	>64 µM	>64 µM	>64 µM	>64 µM	>64 µM
CC[C@H](C)[C@H](NC(=O)CNC(=O)[C@H]1CCCN1C(=O)[C@H](CCCCN)NC(=O)[C@H](Cc1c[nH]c2ccccc12)NC(=O)[C@@H](NC(=O)[C@H](CCCCN)NC(=O)[C@H](CCCCN)NC(=O)[C@@H](N)Cc1c[nH]c2ccccc12)[C@@H](C)CC)C(=O)N[C@@H](CCCCN)C(=O)N[C@@H](CCCCN)C(=O)N[C@@H](Cc1c[nH]c2ccccc12)C(=O)N[C@H](C(=O)N[C@@H](CCCCN)C(=O)O)[C@@H](C)CC [Peptide 2] (H-WKKIWK[dP]GIKKWIK-OH; N-terminus and C-terminus assumed)	0.063	0.070	16.000	0.067	16.000 µM	256.000 µM	16 µM	16 µM	32 µM	16 µM	>64 µM	32 µM	16 µM	16 µM	32 µM
CC[C@H](C)[C@H](NC(=O)CNC(=O)[C@H]1CCCN1C(=O)[C@H](CCCCN)NC(=O)[C@H](Cc1c[nH]c2ccccc12)NC(=O)[C@@H](NC(=O)[C@H](CCCCN)NC(=O)[C@H](CCCCN)NC(=O)[C@H](Cc1c[nH]c2ccccc12)NC(=O)[C@@H](NC(=O)[C@@H](N)CCCCN)[C@@H](C)CC)[C@@H](C)CC)C(=O)N[C@@H](CCCCN)C(=O)N[C@@H](CCCCN)C(=O)N[C@@H](Cc1c[nH]c2ccccc12)C(=O)N[C@H](C(=O)N[C@@H](CCCCN)C(=O)N[C@@H](CCCCN)C(=O)N[C@@H](Cc1c[nH]c2ccccc12)C(=O)O)[C@@H](C)CC [Peptide 3] (H-KIWKKIWK[dP]GIKKWIKKW-OH; N-terminus and C-terminus assumed)	0.011	0.079	90.523	–	2.828 µM	256.000 µM	4 µM	4 µM	8 µM	4 µM	16 µM	4 µM	4 µM	4 µM	4 µM
CC[C@H](C)[C@H](NC(=O)CNC(=O)[C@H]1CCCN1C(=O)[C@H](CCCCN)NC(=O)[C@H](Cc1c[nH]c2ccccc12)NC(=O)[C@@H](NC(=O)[C@H](CCCCN)NC(=O)[C@H](CCCCN)NC(=O)[C@@H](N)Cc1c[nH]c2ccccc12)[C@@H](C)CC)C(=O)N[C@@H](CCCCN)C(=O)N[C@@H](CCCCN)C(=O)N[C@@H](Cc1c[nH]c2ccccc12)C(=O)N[C@H](C(=O)N[C@@H](CCCCN)C(=O)NCC(=O)NCC(=O)NCC(=O)N[C@@H](CCCCN)C(=O)O)[C@@H](C)CC [Peptide 5] (H-WKKIWK[dP]GIKKWIKGGGK-OH; N-terminus and C-terminus assumed)	0.044	0.050	22.627	0.047	11.314 µM	256.000 µM	8 µM	8 µM	32 µM	8 µM	>64 µM	32 µM	32 µM	16 µM	16 µM
CC[C@H](C)[C@H](NC(=O)CNC(=O)[C@H]1CCCN1C(=O)[C@H](CCCCN)NC(=O)[C@H](Cc1c[nH]c2ccccc12)NC(=O)[C@@H](NC(=O)[C@H](CCCCN)NC(=O)[C@H](CCCCN)NC(=O)[C@@H](N)Cc1c[nH]c2ccccc12)[C@@H](C)CC)C(=O)N[C@@H](CCCCN)C(=O)N[C@@H](CCCCN)C(=O)N[C@@H](Cc1c[nH]c2ccccc12)C(=O)N[C@H](C(=O)N[C@@H](CCCCN)C(=O)NCC(=O)NCC(=O)NCC(=O)N[C@@H](CCCCN)C(=O)N[C@@H](CCCCN)C(=O)O)[C@@H](C)CC [Peptide 6] (H-WKKIWK[dP]GIKKWIKGGGKK-OH; N-terminus and C-terminus assumed)	0.050	0.056	20.159	0.053	12.699 µM	256.000 µM	8 µM	8 µM	32 µM	8 µM	>64 µM	32 µM	16 µM	16 µM	16 µM
CC[C@H](C)[C@H](NC(=O)CNC(=O)[C@H]1CCCN1C(=O)[C@H](CCCCN)NC(=O)[C@H](Cc1c[nH]c2ccccc12)NC(=O)[C@@H](NC(=O)[C@H](CCCCN)NC(=O)[C@@H](NC(=O)[C@@H](N)Cc1c[nH]c2ccccc12)[C@@H](C)CC)[C@@H](C)CC)C(=O)N[C@@H](CCCCN)C(=O)N[C@@H](CCCCN)C(=O)N[C@@H](Cc1c[nH]c2ccccc12)C(=O)N[C@H](C(=O)N[C@@H](CCCCN)C(=O)O)[C@@H](C)CC [Peptide 7] (H-WIKIWK[dP]GIKKWIK-OH; N-terminus and C-terminus assumed)	0.099	0.111	10.080	0.105	25.398 µM	256.000 µM	32 µM	32 µM	>64 µM	32 µM	>64 µM	32 µM	32 µM	32 µM	32 µM
CC[C@H](C)[C@H](NC(=O)CNC(=O)[C@H]1CCCN1C(=O)[C@H](CCCCN)NC(=O)[C@H](Cc1c[nH]c2ccccc12)NC(=O)[C@@H](NC(=O)[C@H](CCCCN)NC(=O)[C@H](CCCCN)NC(=O)[C@@H](N)Cc1c[nH]c2ccccc12)[C@@H](C)CC)C(=O)N[C@@H](CCCCN)C(=O)N[C@@H](CCCCN)C(=O)N[C@@H](Cc1c[nH]c2ccccc12)C(=O)N[C@@H](CCCCN)C(=O)N[C@@H](CCCCN)C(=O)O [Peptide 8] (H-WKKIWK[dP]GIKKWKK-OH; N-terminus and C-terminus assumed)	0.079	0.079	12.699	0.079	20.159 µM	256.000 µM	16 µM	16 µM	32 µM	16 µM	>64 µM	64 µM	32 µM	16 µM	64 µM
